Source: patent US8986696B2, “Trans-capsular administration of p38 map kinase inhibitors into orthopedic joints” (DePuy Mitek, Inc., priority 2007, dated 2015)

Test system: rabbit anterior cruciate ligament transection (ACLT) model of osteoarthritis
Assay: ACLT model pilot study, JNJ 3026582 (Example VI)
Assay type: in vivo
Method: New Zealand white rabbits (male, six to eight pounds) were anesthetized with ketamine (17 mg/kg) and xylazine (2.5 mg/kg). Supplementation was given during surgery, if needed, with an additional intramuscular injection of ketamine (35 mg/kg) and xylazine (5 mg/kg). The animals were given buprenorphine (0.01-0.05 mg/kg) for analgesia via a subcutaneous injection. The buprenorphine was administered every twelve hours for seventy-two hours. After induction of anesthesia, the right leg was clipped free of hair using electric animal clippers. The area around the site of surgery was scrubbed with chlorhexidine diacetate, rinsed with alcohol, dried, and painted with an aqueous iodophor solution of 1% available iodine and surgery was prepared using aseptic technique. In the right limb of each animal, the anterior cruciate ligament (ACL) was transected. A medial parapatellar incision was made and the patella was dislocated. The knee was flexed and the ACL visualized. A scalpel blade was positioned behind the ACL and brought anteriorly, thereby cutting the ACL while protecting the posterior cruciate ligament. The patella was returned to the normal anatomic position. The wound was closed in layers.
Following surgery, the animals were left untreated for six weeks. After six weeks, a series of five injections of the test compound were injected intra-articularly once weekly.
The animals were euthanized six weeks after initiation with an intravenous injection of pentobarbital (60 mg/kg). […] Immediately following euthanasia, gross observations of the knee joints were made and any abnormality was recorded. The joints were analyzed for disease state in the trochlear groove, the femoral condyles and the tibial plateau. Pathological assessments were performed on the sectioned tissue. Condylar structure, cellularity, presence of GAG and presence of cartilage were evaluated.
Sterile formulations of JNJ 3026582 (RWJ 67657) were prepared by gamma irradiation (1.5 mRAD) on dry ice. DMSO was sterile filtered and the remaining formulations were prepared aseptically. Specifically, 11.5 mg of JNJ 3026582 (RWJ 67657) was dissolved in 4 mL DMSO and the solution was thoroughly mixed with 5 mL of ARTHREASE® (Lot: 11840812) (Biotechnology General (Israel) Ltd.). The final concentration of JNJ 3026582 (RWJ 67657) in the formulation was 1.3 μg/μL and was considered the high dose. The mid dose was made by a 1:10 dilution of the high dose. The low dose was created in the same fashion as the mid dose i.e., by a 1:10 dilution of the mid dose.
A total of four rabbits (n=4) underwent ACLT of the right limb according to the ACLT model described above.
As discussed above, each formulation was injected once per week for five weeks. 160 μI was injected each time via a 26G (gauge) needle. The vehicle for the formulation was ARTHREASE® (Bio-Technology General (Israel) Ltd.).
At the time of sacrifice, the following parameters were evaluated grossly (the scale follows in parenthesis):
Each parameter was given a score. The combination of all parameters gave a Total Score. A higher score indicates more damage to the joint. The most clinically relevant parameters are discussed in detail below.

## OCCC#Cc1nc(-c2ccc(F)cc2)c(-c2ccncc2)n1CCCc1ccccc1 [JNJ 3026582 (RWJ 67657), 4-[4-(4-fluorophenyl)-1-(3-phenylpropyl)-5-(4-pyridinyl)-1H-imidazol-2-yl]-3-butyn-1-ol]
High 50 μg/kg
  Appearance of Meniscus Lateral, mean score: 2.00
  Appearance of Meniscus Medial, mean score: 2.25
  Appearance of Patella, mean score: 1.25
  Femoral Condyle Presence of Clefts, mean score: 0
  Tibial Plateau (Lateral) # of Osteophytes, mean score: 2.00
  Tibial Plateau (Lateral) Depth of Erosion, mean score: 2.06
  Tibial Plateau (Lateral) Presence of Clefts, mean score: 0
  Tibial Plateau (Lateral) Surface Area Erosion, mean score: 2.50
  Tibial Plateau (Medial) # of Osteophytes, mean score: 1.63
  Tibial Plateau (Medial) Depth of Erosion, mean score: 1.94
  Tibial Plateau (Medial) Presence of Clefts, mean score: 0
  Tibial Plateau (Medial) Surface Area Erosion, mean score: 2.50
  Trochlear Groove # of Osteophytes, mean score: 3.00
  Trochlear Groove Erosion of Cartilage, mean score: 1.25
  Trochlear Groove Osteophyte Size, mean score: 3.00
  Trochlear Groove Thickening, mean score: 0.25
Low 0.5 μg/kg
  Appearance of Meniscus Lateral, mean score: 1.25
  Appearance of Meniscus Medial, mean score: 1.25
  Appearance of Patella, mean score: 0.50
  Femoral Condyle Presence of Clefts, mean score: 0
  Tibial Plateau (Lateral) # of Osteophytes, mean score: 1.75
  Tibial Plateau (Lateral) Depth of Erosion, mean score: 2.13
  Tibial Plateau (Lateral) Presence of Clefts, mean score: 0
  Tibial Plateau (Lateral) Surface Area Erosion, mean score: 2.00
  Tibial Plateau (Medial) # of Osteophytes, mean score: 1.50
  Tibial Plateau (Medial) Depth of Erosion, mean score: 0.50
  Tibial Plateau (Medial) Presence of Clefts, mean score: 0
  Tibial Plateau (Medial) Surface Area Erosion, mean score: 0.25
  Trochlear Groove # of Osteophytes, mean score: 3.00
  Trochlear Groove Erosion of Cartilage, mean score: 1.00
  Trochlear Groove Osteophyte Size, mean score: 3.00
  Trochlear Groove Thickening, mean score: 0.50
Mid 5 μg/kg
  Appearance of Meniscus Lateral, mean score: 1.00
  Appearance of Meniscus Medial, mean score: 2.5
  Appearance of Patella, mean score: 1.38
  Femoral Condyle Presence of Clefts, mean score: 0
  Tibial Plateau (Lateral) # of Osteophytes, mean score: 2.25
  Tibial Plateau (Lateral) Depth of Erosion, mean score: 0.88
  Tibial Plateau (Lateral) Presence of Clefts, mean score: 0
  Tibial Plateau (Lateral) Surface Area Erosion, mean score: 2.25
  Tibial Plateau (Medial) # of Osteophytes, mean score: 2.00
  Tibial Plateau (Medial) Depth of Erosion, mean score: 1.13
  Tibial Plateau (Medial) Presence of Clefts, mean score: 0
  Tibial Plateau (Medial) Surface Area Erosion, mean score: 2.00
  Trochlear Groove # of Osteophytes, mean score: 3.00
  Trochlear Groove Erosion of Cartilage, mean score: 1.63
  Trochlear Groove Osteophyte Size, mean score: 3.00
  Trochlear Groove Thickening, mean score: 0.75
High dose 50 μg/kg
  All Cartilage Effects (0-38), average score: 19.19
  All Condylar Effects (0-18), average score: 8.69
  All Meniscal Effects (0-6), average score: 4.25
  Total Score (0-59), average: 34.31
  lateral femoral condyle % surface area erosion, average score: 2.5
  medial femoral condyle % surface area erosion, average score: 2.25
Low dose 0.5 μg/kg
  All Cartilage Effects (0-38), average score: 12.75
  All Condylar Effects (0-18), average score: 6.38
  All Meniscal Effects (0-6), average score: 2.50
  Total Score (0-59), average: 25.00
  lateral femoral condyle % surface area erosion, average score: 1.23
  medial femoral condyle % surface area erosion, average score: 1.5
Mid dose 5 μg/kg
  All Cartilage Effects (0-38), average score: 14.50
  All Condylar Effects (0-18), average score: 5.88
  All Meniscal Effects (0-6), average score: 3.50
  Total Score (0-59), average: 29.63
  lateral femoral condyle % surface area erosion, average score: 0.75
  medial femoral condyle % surface area erosion, average score: 1.63
